Measurements published in patent US20110152166A1, “METHOD OF MODULATION OF PROTEIN PHOSPHORYLATION-DEPENDENT CONFORMATIONAL TRANSITIONS WITH LOW MOLECULAR WEIGHT COMPOUNDS” (priority 2006, published 2011).

Columns and labels:
[1] = system: GST-S6K1-T2[Thr412Ala] in HEK 293 cells; assay: S6K activation loop phosphorylation in transfected HEK 293 cells; format: cell-based, human; conditions: 200 μM, 90 minutes
Description: (§1) FIG. 4—Small compounds designed to bind the HM/PIF-pocket of PDK1 can block the PDK1-dependent phosphorylation and activation of substrates that require docking to the HM/PIF-pocket of PDK1. (A) Effect of compound 1 (100 and 200 μM) on PDK1 phosphorylation of its substrate S6K1. The phosphorylation reaction was performed in vitro with [γ^32P]ATP and then separated on SDS-PAGE followed by exposure to phosphorimager. The radioactive band corresponding to phosphorylated GST-56K1-T2[Thr412Glu] (S6K[412E]) is indicated. (B) PDK1 or PDK1[Val127Leu] (PDK1[V127L]) were pre-incubated with GST-[…]N-SGK1 [Ser422Asp] […] (C) The activity of S6K was measured in vitro after glutathione sepharose purification; aliquots of purified proteins were separated on SDS-PAGE and the level of activation loop phosphorylation was visualized by immunoblotting using phospho-specific antibodies that recognize the phosphorylated activation loop, followed by stripping of the membranes and re-probing with anti-GST to verify the presence of equal amounts of protein. (D) Cells overexpressing GST-56K1-T2[Thr412Glu] were treated as in (C) but S6K activity was measured in vitro after immunoprecipitation of the GST-fusion protein with anti-GST antibodies; the level of S6K expression was analysed by western-blotting of crude extracts. […]

PDK1 50-360 = molecular target: T1, PDK1 50-360 (Homo sapiens, UniProt O15530); assay: Isothermal Titration Calorimetry; format: binding; conditions: ITC
T1 construct: the catalytic domain of PDK1 (50-359) produced in SF9 insect cells; His-tag (pFastbac-HT, TEV site) (N, cleaved yes); made in house; host or cells: Sf9 insect cells (baculovirus, pFastbac-HT)
T1 sequence (O15530 50-359): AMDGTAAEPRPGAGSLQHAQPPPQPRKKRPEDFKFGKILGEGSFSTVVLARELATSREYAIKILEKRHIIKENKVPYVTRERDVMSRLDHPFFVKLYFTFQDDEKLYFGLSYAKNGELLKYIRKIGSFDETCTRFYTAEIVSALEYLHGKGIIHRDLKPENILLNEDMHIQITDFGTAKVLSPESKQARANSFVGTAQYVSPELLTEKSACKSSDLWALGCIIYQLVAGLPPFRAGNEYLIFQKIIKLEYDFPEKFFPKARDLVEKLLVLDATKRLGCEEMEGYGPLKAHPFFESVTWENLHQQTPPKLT
Description: FIG. 8—Characterization of compound 1 interaction with PDK1 50-360 by Isothermal Titration Calorimetry (ITC). Upper panel, raw data of the titration of compound 1 into PDK1 50-360. Lower panel, integrated heats of injection, corrected for the heat of dilution, with the solid line corresponding to the best fit of the data using Origin™ software. The best fit corresponded to a model with one type of sites. […] The calorimetric titration was performed using the VP-ITC instrument from MicroCal Inc. (Northampton, Mass.) as previously described (Schaeffer et al., 2002) with the following modifications. PDK1 and compound 1 were prepared in 50 mM Tris-HCl (pH 7.5), 175 mM NaCl, 1 mM DTT and 3% DMSO. Titration was performed by 30 successive injections (10 μl) of compound 1 (0.9 mM) into a 1.41 ml reaction cell containing PDK1 50-360 ([…]). Raw calorimetric data were corrected for the heat of dilution, and analyzed using the program Origin™ provided by the manufacturer. Binding stoichiometry, enthalpy and equilibrium dissociation constants were determined by fitting corrected data to a model with a single binding site.

[2] = molecular target: T2, PDK1[Val127Leu] activation of SGK1 [Ser422Asp] (Homo sapiens, UniProt O15530, V127L); assay: SGK activation by PDK1[Val127Leu] in vitro; format: biochemical; conditions: compound 60 μM
T2 construct: GST (N); made in house; host or cells: HEK293
Description: as §1

[3] = molecular target: T3, PDK1 activation of SGK1 [Ser422Asp] (Homo sapiens, UniProt O15530); assay: SGK1 activation by PDK1 in vitro; format: biochemical; conditions: compound 60 μM
T3 construct: GST (N); made in house; host or cells: HEK293
Description: as §1

T3 sequence (O15530 whole entry, change not shown): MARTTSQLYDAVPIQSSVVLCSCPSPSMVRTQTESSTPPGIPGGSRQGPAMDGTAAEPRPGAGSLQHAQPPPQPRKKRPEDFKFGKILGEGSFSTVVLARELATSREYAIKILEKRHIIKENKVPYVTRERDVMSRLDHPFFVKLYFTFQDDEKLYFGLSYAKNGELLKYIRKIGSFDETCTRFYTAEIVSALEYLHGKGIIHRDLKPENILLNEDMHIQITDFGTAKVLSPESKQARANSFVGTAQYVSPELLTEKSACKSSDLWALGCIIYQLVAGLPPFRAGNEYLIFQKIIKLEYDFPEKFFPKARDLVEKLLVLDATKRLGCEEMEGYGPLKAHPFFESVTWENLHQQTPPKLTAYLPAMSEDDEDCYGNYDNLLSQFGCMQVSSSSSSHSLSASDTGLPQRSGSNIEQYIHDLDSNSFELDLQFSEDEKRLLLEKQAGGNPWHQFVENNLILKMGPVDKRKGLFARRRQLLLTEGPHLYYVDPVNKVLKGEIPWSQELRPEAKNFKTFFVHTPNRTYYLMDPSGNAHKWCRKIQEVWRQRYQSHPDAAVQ
T2 sequence (O15530 whole entry V127L): as the sequence (O15530 whole entry, change not shown) above, with V127L counted along it

O=C(O)CSC(CC(=O)c1ccc(Cl)cc1)c1ccccc1 (stereo not shown) [Compound 1]
activation loop phosphorylation of S6K1-T2[Thr412Ala] (in words) [1]: significantly decreased
N (binding stoichiometry) (PDK1 50-360): 1.0 ± 0.1
TΔS (PDK1 50-360): 4.3 ± 0.2 kcal/mol
ΔH (PDK1 50-360): −2.1+0.1 kcal·mol^−1
Kd (PDK1 50-360; one type of sites, pH 7.5, 3% DMSO): 18 µM
SGK activation by PDK1[Val127Leu] (in words) [2]: not inhibited
SGK1 activation by PDK1 (in words) [3]: inhibited
